pKd, pKi: −log10 of the molar value.
What was measured:
[1] = biological target: T1, 3-beta-hydroxysteroid-Delta(8),Delta(7)-isomerase (Cavia porcellus, UniProt Q60490); assay: Displacement of [3H]emopamil from Delta-(8)-Delta-(7) sterol isomerase in guinea pig liver membrane; format: cell membranes
T1 sequence (Q60490 whole entry): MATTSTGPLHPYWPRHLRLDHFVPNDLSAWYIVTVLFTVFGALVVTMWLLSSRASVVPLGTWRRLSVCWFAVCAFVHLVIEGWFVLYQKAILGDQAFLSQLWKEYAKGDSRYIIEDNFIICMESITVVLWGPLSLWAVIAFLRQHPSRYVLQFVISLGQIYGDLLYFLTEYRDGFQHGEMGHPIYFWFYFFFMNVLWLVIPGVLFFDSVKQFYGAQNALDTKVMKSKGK

[2] = biological target: Sigma non-opioid intracellular receptor 1 (Cavia porcellus, UniProt Q60492); assay: Displacement of [3H]pentazocine from Sigma1 receptor in guinea pig brain membrane; format: cell membranes
Sigma non-opioid intracellular receptor 1, sequence (Q60492 whole entry): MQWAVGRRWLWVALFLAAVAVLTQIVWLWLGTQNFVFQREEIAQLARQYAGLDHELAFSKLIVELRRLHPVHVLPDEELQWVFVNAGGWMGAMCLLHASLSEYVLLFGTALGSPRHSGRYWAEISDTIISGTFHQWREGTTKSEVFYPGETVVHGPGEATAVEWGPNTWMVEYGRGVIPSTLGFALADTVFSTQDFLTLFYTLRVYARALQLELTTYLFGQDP

[3] = Displacement of [3H]DTG from sigma2 receptor in Wistar rat liver membrane in presence of 1 uM […]; format: cell membranes
[4] = Selectivity for sigma1 receptor over sigma2 receptor
[5] = (§1) Binding affinity to sigma2 receptor in Wistar rat liver membrane; format: cell membranes
[6] = species on record: Rattus norvegicus; assay: as §1; format: cell membranes

Row | Structure (SMILES) | pKi [1] | pKi [2] | pKi [3] | Ratio Ki [4] | pKd [5] | Bmax [6]
1 | CC(C(O)c1ccc(O)cc1)N1CCC(Cc2ccccc2)CC1 (racemic) [IFENPRODIL] | 7.70 |  |  |  |  | 
2 | COc1cccc2c(CCCN3CCCC(C)(C)C3)cccc12 | 7.89 | 7.35 | 6.19 | 14 |  | 
3 | c1ccc2c(c1)c1ccccc1n2CCCN1CCN(C2CCCCC2)CC1 | 7.10 | 5.46 | 7.90 | 0.004 |  | 
4 | CC1(C)CCCN(CCCCn2c3ccccc3c3ccccc32)C1 | 6.57 | 6.76 | 6.28 | 3 |  | 
5 | Cc1ccccc1NC(=N)Nc1ccccc1C [DITOLYLGUANIDINE] |  |  | 7.51 |  |  | 
6 | COc1cccc2c(CCCN3CCN(C4CCCCC4)CC3)cccc12 | 8.35 |  | 8.03 |  |  | 
7 | COc1ccc2cccc(CCCN3CCN(C4CCCCC4)CC3)c2c1 | 7.37 | 9.05 | 8.08 | 9 |  | 
8 | COc1ccc2c(CCCN3CCN(C4CCCCC4)CC3)cccc2c1 | 8.15 | 8.50 | 8.04 | 3 |  | 
9 | COc1ccc2cccc(CCCN3CCCC(C)(C)C3)c2c1 | 8.39 | 6.94 | 6.17 | 6 |  | 
10 | CC1(C)CCCN(CCCCCn2c3ccccc3c3ccccc32)C1 | 7.62 | 6.86 | 6.93 | 0.8 |  | 
11 | CC1(C)CCCN(CCCc2cccc3cc(O)ccc23)C1 | 6.45 | 6.47 | 6.22 | 2 |  | 
12 | COc1ccc2c(CCCN3CCCC(C)(C)C3)cccc2c1 |  |  |  | 680 |  | 
13 | CC1(C)CCCN(CCCn2c3ccccc3c3ccccc32)C1 | 6.46 | 5.69 | 5.35 | 2 |  | 
14 | Oc1ccc2c(CCCN3CCN(C4CCCCC4)CC3)cccc2c1 | 7.67 | 8.17 | 7.58 | 4 | 7.67 | 0.47 pmol/mg
15 | CC1(C)CCCN(CCCc2cccc3ccc(O)cc23)C1 | 7.52 | 6.13 | 6.39 | 0.6 |  | 
16 | Oc1ccc2cccc(CCCN3CCN(C4CCCCC4)CC3)c2c1 | 7.26 | 8.26 | 7.93 | 2 |  | 
